Assay [1] deals with T1, human LTA4H (Homo sapiens, UniProt P09960).
T1 sequence (P09960 1-611): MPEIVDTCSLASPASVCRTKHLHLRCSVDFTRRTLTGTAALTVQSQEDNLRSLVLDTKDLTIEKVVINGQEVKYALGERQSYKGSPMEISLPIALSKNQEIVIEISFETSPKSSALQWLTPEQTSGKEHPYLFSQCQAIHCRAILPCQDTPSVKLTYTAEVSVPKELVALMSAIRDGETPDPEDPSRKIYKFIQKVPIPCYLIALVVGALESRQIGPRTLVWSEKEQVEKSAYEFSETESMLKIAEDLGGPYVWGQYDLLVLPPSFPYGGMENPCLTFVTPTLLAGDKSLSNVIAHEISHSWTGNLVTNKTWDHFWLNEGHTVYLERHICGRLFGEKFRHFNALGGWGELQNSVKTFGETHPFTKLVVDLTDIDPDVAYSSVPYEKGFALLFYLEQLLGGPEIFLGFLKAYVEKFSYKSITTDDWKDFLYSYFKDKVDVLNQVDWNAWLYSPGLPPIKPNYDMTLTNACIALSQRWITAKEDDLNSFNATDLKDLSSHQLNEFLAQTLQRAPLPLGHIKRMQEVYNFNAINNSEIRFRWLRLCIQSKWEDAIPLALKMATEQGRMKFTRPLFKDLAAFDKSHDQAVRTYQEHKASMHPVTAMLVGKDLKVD
Put plainly: Human LTA4H enzyme assay (Arg-AMC surrogate substrate, fluorescence). Type of assay: biochemical. Particulars: read-out: ArgAMC IC50. On the procedure:
Leukotriene A4 hydrolase (LTA4H) catalyzes the vinylogous hydrolysis of the epoxide, leukotriene A4 (LTA4) into the pro-inflammatory mediator LTB4.
For compound testing, compounds are delivered as 10 mM stock solutions in 90% DMSO (10% water) in matrix tubes. […] The enzyme compound mixture is incubated at room temperature for 15 minutes prior to the addition of 50 μL substrate solution. A final substrate concentration of 600 μM, which is around the KM value of Arg-AMC, at a final enzyme concentration of 9 nM is chosen. Upon addition of the substrate, the plate is immediately placed in a fluorescence reader and the fluorescence is measured every 10 minutes for 60 minutes using the filter setting λexcitation=380 nm and λemission=460 nm. […] Raw data is converted to rate (moles per minute) using the AMC calibration curve calculated from the AMC standards. The data is analyzed in GraphPad Prism (GraphPad software Inc.) using non-linear regression to determine IC50 values of LTA4H inhibitors.

Assay [2] concerns LTB4 biosynthesis in human whole blood. Briefly: Human whole blood assay (hWB): inhibition of LTB4 biosynthesis after A23187 stimulation, ELISA. The format is cell-based. On the procedure: Compounds are tested in a human whole blood assay (hWB) to test their ability to inhibit LTB4 biosynthesis in a human cellular system. To this end, fresh blood is collected in heparinized vacutainers by venipuncture from volunteers. Blood is diluted 1:3 with RPMI (Roswell Park Memorial Institute) medium and aliquots of 200 μL are transferred to 96-well round bottom cell culture plates. For compound testing, compounds are delivered as 10 mM stock solutions in 90% DMSO in matrix tubes. […] 4 μL of compound dilution or vehicle is added to 200 μL of blood and incubated for 15 min at 37° C. in a humidified incubator. Then blood is stimulated with 10 μg/ml calcium ionophore A23187 (Sigma) or equal volume DMSO (control) and incubated for an additional 15 min at 37° C. in a humidified incubator. Incubation is terminated by centrifugation at 300 g for 10 min at 22° C. Plasma supernatant is taken and transferred to a 96 well plate for eicosanoid determination by ELISA (Assay designs) according to the manufacturer's protocol after 1:20 dilution in assay buffer. The data is analyzed in GraphPad Prism (GraphPad software Inc.) using non-linear regression to determine IC50 values of LTA4H inhibitors.

Assay [3] relates to LTB4 release. Briefly: Murine PD assay: ex vivo A23187-stimulated LTB4 release in blood after p.o. dosing. Details: species or system female C57BL/6 mice. The conditions noted are these: Mus musculus, po, read-out: PD effect [%] inhibition of LTB4 release. The method, then: LTA4H inhibitor compounds or vehicle control (30% PEG200 (70%), 5% Glucose) is applied per os (p.o.) in a dose of 0.3 mg/kg to female C57BL/6 mice (Charles River France). Three hours after application of compound, mice are terminally bled and blood is collected in heparinized tubes. Collected blood is diluted 1:3 in RPMI medium, added in 96-well round bottom cell culture plates and incubated with 10 μg/ml calcium ionophore A23187 (Sigma) or equal volume DMSO (control) for 15 min at 37° C. in a humidified incubator. Incubation is terminated by centrifugation at 300 g for 10 min at 22° C. Plasma supernatant is taken, diluted 1:10 in assay buffer and transferred to a 96 well plate for eicosanoid determination by ELISA (Assay designs) according to the manufacturer's protocol.

Setting [4] is: human whole blood diluted 1:3, 10 μg/ml calcium ionophore A23187, LTB4 by ELISA, read-out: hWB IC50.
[5] abbreviates: 0.3 mg/kg p.o., female C57BL/6 mice, blood taken 3 hours after application, ex vivo A23187 stimulation, versus vehicle control.
Where [6] appears, read: Homo sapiens, read-out: hWB IC50 (nM).

Like-named read-outs stand apart in the source and are kept apart here. A value given as a limit tells only on which side of the number the result lay.

In general, IC50 refers to the concentration that inhibits the measured activity by half. For orientation: inhibition means how much of the control response was suppressed.

Take `N[C@H](CC(=O)O)Cn1nnc(-c2cccc(Oc3ccc(Cl)cc3)c2)n1` [Example 5, (R)-3-amino-4-(5-(3-(4-chlorophenoxy)phenyl)-2H-tetrazol-2-yl)butanoic acid]: the values for the 50% inhibitory concentration (IC50) in assay [1] and in assay [2] (setting [4]) were 3 nM and 396 nM, respectively.

In the case of `N[C@H](CC(=O)O)Cn1nnc(-c2ccc(Oc3ccc(F)c(Cl)c3)cc2)n1` [Example 8, (R)-3-amino-4-(5-(4-(3-chloro-4-fluorophenoxy)phenyl)-2H-tetrazol-2-yl)butanoic acid], the concentration for half-maximal inhibition (IC50) in assay [1] came to 3 nM; in assay [2] (setting [4]) it was 282 nM.

Consider `Cc1ccc(Oc2ccc(-c3nnn(C[C@H](N)CC(=O)O)n3)cc2)cc1` [Example 9, (R)-3-amino-4-(5-(4-(p-tolyloxy)phenyl)-2H-tetrazol-2-yl)butanoic acid], for which the values for the IC50 in assay [1] and in assay [2] (setting [4]) were at most 2 nM and 402 nM, respectively.

As for `N[C@@H](CC(=O)O)Cn1nnc(-c2cccc(Oc3ccccc3)c2)n1` [Example 10, (S)-3-amino-4-(5-(3-phenoxyphenyl)-2H-tetrazol-2-yl)butanoic acid], the values for the IC50 in assay [1] and in assay [2] (setting [4]) were 4 nM and 214 nM, respectively.

Turning to `N[C@H](CC(=O)O)Cn1nnc(-c2cccc(OCCc3ccccc3)c2)n1` [Example 13, (R)-3-amino-4-(5-(3-phenethoxyphenyl)-2H-tetrazol-2-yl)butanoic acid], the IC50 in assay [1] is at most 2 nM; in assay [2] (setting [4]), 86 nM. Further, the inhibition at 0.3 mg/kg in assay [3] (setting [5]) stood at 55%.

As for `N[C@H](CC(=O)O)Cn1nnc(-c2ccc(OCc3ccccc3)cc2)n1` [Example 15, (R)-3-amino-4-(5-(4-(benzyloxy)phenyl)-2H-tetrazol-2-yl)butanoic acid], the figures for the IC50 in assay [1] and in assay [2] (setting [6]) were at most 2 nM and 81 nM, respectively. In addition, the inhibition at 0.3 mg/kg in assay [3] (3 h) came out at 49%.

Turning to `N[C@H](CC(=O)O)Cn1nnc(-c2cccc(OCc3ccccc3)c2)n1` [Example 16, (R)-3-amino-4-(5-(3-(benzyloxy)phenyl)-2H-tetrazol-2-yl)butanoic acid], the concentration for half-maximal inhibition (IC50) came to 3 nM in assay [1] and 165 nM in assay [2] (setting [6]). Also, in assay [3] (3 h), the inhibition at 0.3 mg/kg turned out to be 9%.

For `CCCCOc1ccc(-c2nnn(C[C@H](N)CC(=O)O)n2)cc1` [Example 17, (R)-3-amino-4-(5-(4-butoxyphenyl)-2H-tetrazol-2-yl)butanoic acid], the IC50 in assay [1] came out at 4 nM; in assay [2] (setting [6]), 183 nM. Further, the inhibition at 0.3 mg/kg in assay [3] (3 h) turned out to be 47%.

In the case of `N[C@H](CC(=O)O)Cn1nnc(-c2cccc(Oc3ccc(C(F)(F)F)cn3)c2)n1` [Example 19, (R)-3-amino-4-(5-(3-((5-(trifluoromethyl)pyridin-2-yl)oxy)phenyl)-2H-tetrazol-2-yl)butanoic acid], the values for the IC50 in assay [1] and in assay [2] (setting [6]) were 3 nM and 273 nM, respectively.

Consider `N[C@H](CC(=O)O)Cn1nnc(-c2ccc(Oc3ccc(C(F)(F)F)cn3)cc2)n1` [Example 20, (R)-3-amino-4-(5-(4-((5-(trifluoromethyl)pyridin-2-yl)oxy)phenyl)-2H-tetrazol-2-yl)butanoic acid], for which the results for the concentration for half-maximal inhibition (IC50) in assay [1] and in assay [2] (setting [4]) were 5 nM and 270 nM, respectively.

In the case of `N[C@H](CC(=O)O)Cn1nnc(-c2cccc(Oc3nc4ccccc4s3)c2)n1` [Example 21, (R)-3-amino-4-(5-(3-(benzo[d]thiazol-2-yloxy)phenyl)-2H-tetrazol-2-yl)butanoic acid], the IC50 was 5 nM in assay [1] and 209 nM in assay [2] (setting [4]).

For the molecule `N[C@H](CC(=O)O)Cn1nnc(-c2cccc(Oc3cc(F)cc(F)c3)c2)n1` [Example 22, (R)-3-amino-4-(5-(3-(3,5-difluorophenoxy)phenyl)-2H-tetrazol-2-yl)butanoic acid], the IC50 in assay [1] is 8 nM; in assay [2] (setting [4]), 294 nM.

For the molecule `Cc1ccc(Oc2ccc(-c3nnn(C[C@@H](N)CC(=O)O)n3)cc2)cc1` [Example 23, (S)-3-amino-4-(5-(4-(p-tolyloxy)phenyl)-2H-tetrazol-2-yl)butanoic acid], the concentration for half-maximal inhibition (IC50) in assay [1] was at most 2 nM; in assay [2] (setting [4]), 173 nM. The inhibition at 0.3 mg/kg in assay [3] (setting [5]) is 44%.

As to `N[C@@H](CC(=O)O)Cc1nnc(-c2ccc(Oc3ccc(F)cc3)cc2)o1` [Example 24, (R)-3-amino-4-(5-(4-(4-fluorophenoxy)phenyl)-1,3,4-oxadiazol-2-yl)butanoic acid], the values for the 50% inhibitory concentration (IC50) in assay [1] and in assay [2] (setting [4]) were 3 nM and 282 nM, respectively.

Turning to `N[C@@H](CC(=O)O)Cc1nnc(-c2ccc(Oc3ccc(Cl)cc3)cc2)o1` [Example 25, (R)-3-amino-4-(5-(4-(4-chlorophenoxy)phenyl)-1,3,4-oxadiazol-2-yl)butanoic acid], the figures for the IC50 in assay [1] and in assay [2] (setting [4]) were 3 nM and 382 nM, respectively.

As to `N[C@@H](CC(=O)O)Cc1nc(-c2ccc(Oc3ccc(Cl)cc3)cc2)no1` [Example 26, (R)-3-amino-4-(3-(4-(4-chlorophenoxy)phenyl)-1,2,4-oxadiazol-5-yl)butanoic acid], the IC50 worked out at 3 nM in assay [1] and 126 nM in assay [2] (setting [4]).

On to `NC(=O)C[C@H](N)Cc1nc(-c2ccc(Oc3ccc(Cl)cc3)cc2)no1` [Example 27, (R)-3-amino-4-(3-(4-(4-chlorophenoxy)phenyl)-1,2,4-oxadiazol-5-yl)butanamide], for which the IC50 in assay [1] worked out at 10 nM; in assay [2] (setting [4]) it was 218 nM.

For `N[C@@H](CC(=O)O)Cn1cc(-c2ccc(Oc3ccc(Cl)cc3)cc2)cn1` [Example 28, (S)-3-amino-4-(4-(4-(4-chlorophenoxy)phenyl)-1H-pyrazol-1-yl)butanoic acid], the IC50 in assay [1] amounted to 3 nM; in assay [2] (setting [4]) it was 728 nM.

For the origin of these results see patent US12378206B2, “Heteroaryl butanoic acid derivatives” (NOVARTIS AG, priority 2013, dated 2025).
